These results are taken from ChEMBL document CHEMBL1134887, “Muraymycins, novel peptidoglycan biosynthesis inhibitors: semisynthesis and SAR of their derivatives” (Bioorg Med Chem Lett, 2002).

Calls of active or inactive are those of the source. The rule behind the calls is not given here.

Type in all cases: functional
In assay [1] the test system is Staphylococcus epidermidis. Put plainly: Compound was tested for reduction in the production of lipid II relative to the control(judged by intensity) on the film, inhibition of either MraY or MurG at a dose of 100 ug/mL.
Assay [2] has as its system Staphylococcus epidermidis. Put plainly: Compound was tested for reduction in the production of lipid II relative to the control(judged by intensity) on the film, inhibition of either MraY or MurG at a dose of 50 ug/mL.
Assay [3] concerns Staphylococcus epidermidis. Put plainly: Compound was tested for reduction in the production of lipid II relative to the control(judged by intensity) on the film, inhibition of either MraY or MurG at a dose of 6.25 ug/mL.
In assay [4] the test system is Staphylococcus epidermidis. Put plainly: Compound was tested for reduction in the production of lipid II relative to the control(judged by intensity) on the film, inhibition of either MraY or MurG at a dose of 25 ug/mL.
Assay [5] has as its system Staphylococcus epidermidis. The assay can be described thus: Inhibitory activity against MraY/MurG at a concentration of 6.25 ug/mL; No activity.
The test system of assay [6] is Staphylococcus epidermidis. The assay can be described thus: Inhibitory activity against MraY/MurG at a concentration of 25 ug/mL; No activity.
Assay [7] concerns Staphylococcus epidermidis. The assay can be described thus: Inhibitory activity against MraY/MurG at a concentration of 50 ug/mL; No activity.
For assay [8], the system named is Staphylococcus epidermidis. Put plainly: Inhibitory activity against MraY/MurG at a concentration of 100 ug/mL; No activity.
The subject of assay [9] is Staphylococcus epidermidis. Put plainly: Inhibitory activity against MraY/MurG at a concentration of 6.25 ug/mL No activity.
Assay [10] relates to Staphylococcus epidermidis. Put plainly: Inhibitory activity against MraY/MurG at a concentration of 100 ug/mL; Not activity.
Assay [11] deals with Staphylococcus epidermidis. Put plainly: Inhibitory activity against MraY/MurG at a concentration of 6.25 ug/mL; Not activity.

In the case of `CO[C@H]1[C@H](OC(C2C(=O)N(Cc3ccccc3)C(=O)N2CCCNC(=O)[C@@H](NC(=O)[C@@H](NC(=O)N[C@H](C(=O)O)C(C)C)[C@@H]2CCN=C(N)N2)[C@@H](O)C(C)C)[C@H]2O[C@@H](n3ccc(=O)[nH]c3=O)[C@H](O)[C@@H]2O)O[C@H](CN)[C@H]1O` (some centres undefined), the Inhibitory activity entry in assay [1], in assay [2], in assay [3] and in assay [4] was “Active” throughout.

With `CO[C@H]1[C@H](OC(C2C(=O)N(c3ccc(F)cc3)C(=O)N2CCCNC(=O)[C@@H](NC(=O)[C@@H](NC(=O)N[C@H](C(=O)O)C(C)C)[C@@H]2CCN=C(N)N2)[C@@H](O)C(C)C)[C@H]2O[C@@H](n3ccc(=O)[nH]c3=O)[C@H](O)[C@@H]2O)O[C@H](CNC(=O)Nc2ccc(F)cc2)[C@H]1O` (some centres undefined), the Inhibitory activity entry in [5], in [6], in assay [7] and in [8] was “Active” throughout.

As to `CCCCCN1C(=O)C(C(O[C@@H]2O[C@H](CN)[C@@H](O)[C@H]2OC)[C@H]2O[C@@H](n3ccc(=O)[nH]c3=O)[C@H](O)[C@@H]2O)N(CCCNC(=O)[C@@H](NC(=O)[C@@H](NC(=O)N[C@H](C(=O)O)C(C)C)[C@@H]2CCN=C(N)N2)[C@@H](O)C(C)C)C1=O` (some centres undefined), the Inhibitory activity result in assay [5] and in [6] was “inactive” in each case. Also, the Inhibitory activity result in [7] and in assay [1] was “Active” in each case.

As for `CCCCCCNC(=O)NC[C@H]1O[C@@H](OC(C2C(=O)N(CCCCCC)C(=O)N2CCCNC(=O)[C@@H](NC(=O)[C@@H](NC(=O)N[C@H](C(=O)O)C(C)C)[C@@H]2CCN=C(N)N2)[C@@H](O)C(C)C)[C@H]2O[C@@H](n3ccc(=O)[nH]c3=O)[C@H](O)[C@@H]2O)[C@H](OC)[C@@H]1O` (some centres undefined), the Inhibitory activity result in [5], in [6], in [7] and in assay [8] was “Active” in each case.

As to `CO[C@H]1[C@H](OC([C@H](NCCCNC(=O)[C@@H](NC(=O)[C@@H](NC(=O)N[C@H](C(=O)O)C(C)C)[C@@H]2CCN=C(N)N2)[C@@H](O)C(C)C)C(=O)O)[C@H]2O[C@@H](n3ccc(=O)[nH]c3=O)[C@H](O)[C@@H]2O)O[C@H](CN)[C@H]1O` (some centres undefined), the Inhibitory activity result in [1], in assay [2], in assay [3] and in assay [4] was “Active” throughout.

In the case of `CCCCCCCCCCCCN(CCCNC(=O)[C@@H](NC(=O)[C@@H](NC(=O)N[C@H](C(=O)O)C(C)C)[C@@H]1CCN=C(N)N1)[C@@H](O)C(C)C)[C@H](C(=O)O)C(O[C@@H]1O[C@H](CN)[C@@H](O)[C@H]1OC)[C@H]1O[C@@H](n2ccc(=O)[nH]c2=O)[C@H](O)[C@@H]1O` (some centres undefined), the Inhibitory activity result in assay [9] and in assay [6] was “inactive” throughout. The Inhibitory activity entry in assay [1] and in assay [2] was “Active” in each case.

Regarding `CCCCCCCCNC(=O)NC[C@H]1O[C@@H](OC(C2C(=O)N(CCCCCCCC)C(=O)N2CCCNC(=O)[C@@H](NC(=O)[C@@H](NC(=O)N[C@H](C(=O)O)C(C)C)[C@@H]2CCN=C(N)N2)[C@@H](O)C(C)C)[C@H]2O[C@@H](n3ccc(=O)[nH]c3=O)[C@H](O)[C@@H]2O)[C@H](OC)[C@@H]1O` (some centres undefined), the Inhibitory activity entry in assay [5], in assay [10], in assay [6] and in [7] was “Active” each time.

Take `CO[C@H]1[C@H](OC([C@H]2O[C@@H](n3ccc(=O)[nH]c3=O)[C@H](O)[C@@H]2O)[C@@H](C(=O)O)N(CCCCCCCCCCCCN2CCOCC2)CCCNC(=O)[C@@H](NC(=O)[C@@H](NC(=O)N[C@H](C(=O)O)C(C)C)[C@@H]2CCN=C(N)N2)[C@@H](O)C(C)C)O[C@H](CN)[C@H]1O` (some centres undefined): the Inhibitory activity entry in assay [5] and in [6] was “inactive” each time. Also, the Inhibitory activity entry in [7] and in assay [1] was “Active” each time.

Take `COc1ccc(NC(=O)NC[C@H]2O[C@@H](OC(C3C(=O)N(c4ccc(OC)cc4)C(=O)N3CCCNC(=O)[C@@H](NC(=O)[C@@H](NC(=O)N[C@H](C(=O)O)C(C)C)[C@@H]3CCN=C(N)N3)[C@@H](O)C(C)C)[C@H]3O[C@@H](n4ccc(=O)[nH]c4=O)[C@H](O)[C@@H]3O)[C@H](OC)[C@@H]2O)cc1` (some centres undefined): the Inhibitory activity result in [5], in [6], in assay [7] and in assay [8] was “Active” in each case.

With `CO[C@H]1[C@H](OC(C2C(=O)N(c3ccc(F)cc3)C(=O)N2CCCNC(=O)[C@@H](NC(=O)[C@@H](NC(=O)N[C@H](C(=O)O)C(C)C)[C@@H]2CCN=C(N)N2)[C@@H](O)C(C)C)[C@H]2O[C@@H](n3ccc(=O)[nH]c3=O)[C@H](O)[C@@H]2O)O[C@H](CN)[C@H]1O` (some centres undefined), the Inhibitory activity result in assay [1], in assay [2], in [11] and in assay [4] was “Active” in each case.

As to `CCCCCCCCCCCCNC(=O)NC[C@H]1O[C@@H](OC(C2C(=O)N(CCCCCCCCCCCC)C(=O)N2CCCNC(=O)[C@@H](NC(=O)[C@@H](NC(=O)N[C@H](C(=O)O)C(C)C)[C@@H]2CCN=C(N)N2)[C@@H](O)C(C)C)[C@H]2O[C@@H](n3ccc(=O)[nH]c3=O)[C@H](O)[C@@H]2O)[C@H](OC)[C@@H]1O` (some centres undefined), the Inhibitory activity result in assay [5], in [6], in assay [7] and in assay [8] was “Active” throughout.

Consider `CCCCCN(CCCNC(=O)[C@@H](NC(=O)[C@@H](NC(=O)N[C@H](C(=O)O)C(C)C)[C@@H]1CCN=C(N)N1)[C@@H](O)C(C)C)[C@H](C(=O)O)C(O[C@@H]1O[C@H](CN)[C@@H](O)[C@H]1OC)[C@H]1O[C@@H](n2ccc(=O)[nH]c2=O)[C@H](O)[C@@H]1O` (some centres undefined), for which the Inhibitory activity entry in assay [5] and in assay [6] was “inactive” in each case. Moreover, the Inhibitory activity result in [7] and in assay [1] was “Active” in each case.

For the molecule `CO[C@H]1[C@H](OC([C@H](NCCCNC(=O)[C@@H](NC(=O)[C@@H](NC(=O)N[C@H](C(=O)O)C(C)C)[C@@H]2CCN=C(N)N2)[C@@H](O)C(C)C)C(=O)O)[C@H]2O[C@@H](n3ccc(=O)[nH]c3=O)[C@H](O)[C@@H]2O)O[C@H](C/N=C(C)/C=C(/C)O)[C@H]1O` (some centres undefined), the Inhibitory activity result in assay [5], in [6], in [7] and in assay [8] was “Active” each time.

Take `CCCCCCCCCCCCN1C(=O)C(C(O[C@@H]2O[C@H](CN)[C@@H](O)[C@H]2OC)[C@H]2O[C@@H](n3ccc(=O)[nH]c3=O)[C@H](O)[C@@H]2O)N(CCCNC(=O)[C@@H](NC(=O)[C@@H](NC(=O)N[C@H](C(=O)O)C(C)C)[C@@H]2CCN=C(N)N2)[C@@H](O)C(C)C)C1=O` (some centres undefined): the Inhibitory activity entry in assay [1], in [2], in assay [3] and in assay [4] was “Active” in each case.

Take `CCCCCNC[C@H]1O[C@@H](OC([C@H]2O[C@@H](n3ccc(=O)[nH]c3=O)[C@H](O)[C@@H]2O)[C@@H](C(=O)O)N(CCCCC)CCCNC(=O)[C@@H](NC(=O)[C@@H](NC(=O)N[C@H](C(=O)O)C(C)C)[C@@H]2CCN=C(N)N2)[C@@H](O)C(C)C)[C@H](OC)[C@@H]1O` (some centres undefined): the Inhibitory activity entry in assay [5], in assay [6], in assay [7] and in assay [8] was “inactive” in each case.

For `CO[C@H]1[C@H](OC([C@H]2O[C@@H](n3ccc(=O)[nH]c3=O)[C@H](O)[C@@H]2O)[C@@H](C(=O)O)N(CCCNC(=O)[C@@H](NC(=O)[C@@H](NC(=O)N[C@H](C(=O)O)C(C)C)[C@@H]2CCN=C(N)N2)[C@@H](O)C(C)C)Cc2ccc(-c3ccccc3)cc2)O[C@H](CNCc2ccc(-c3ccccc3)cc2)[C@H]1O` (some centres undefined), the Inhibitory activity entry in [5], in assay [6], in assay [7] and in assay [8] was “Active” throughout.
